# Literature values, collected in US20250228825A1, “COMPOSITIONS OF RAPAMYCIN AND THEIR USE IN THE TREATMENT OF M[…] MALFORMATION” (priority 2021, published 2025).
# System: LM lesions
# Conditions: patients with LM
smiles,measurement,setting,value
"CO[C@H]1C[C@@H]2CC[C@@H](C)[C@@](O)(O2)C(=O)C(=O)N2CCCC[C@H]2C(=O)O[C@H]([C@H](C)C[C@@H]2CC[C@@H](O)[C@H](OC)C2)CC(=O)[C@H](C)/C=C(\C)[C@@H](O)[C@@H](OC)C(=O)[C@H](C)C[C@H](C)/C=C/C=C/C=C/1C [sirolimus, rapamycin]",effectiveness,reported in another review,84.5%
same,pooled clinical effectiveness (partial or complete response),reported in one review,94.9%
